# Laboratory results published in patent publication US10947285B2, “Compounds, compositions and uses thereof for improvement of bone disorders” (Amolyt Pharma, priority 2017, dated 2021).
# Residues, ends and D or L forms follow the SMILES beside them. No end group written: not given here. *: point of attachment. Stearoyl = CCCCCCCCCCCCCCCCCC(=O)*
# Tests used:
# [1] = Pharmacokinetic in Göttingen minipigs after intravenous and subcutaneous injection; type: in vivo; details: 0.5 μmol/kg
# Description: The peptide was reconstituted in saline (0.9% NaCl). Three Göttingen minipigs (approximately 8-10 months of age) were used per group. Intravenous doses were administered into an ear vein at the dose of 0.5 μmol net peptide/kg. Subcutaneous doses were administered into the right flank of each animal, also at the dose of 0.5 μmol net peptide/kg. Following dosing, serial whole blood samples (ca. 0.25 mL) were collected from a jugular vein into K2EDTA treated containers. Following each blood sample collection, samples were placed into a cooling block at 4° C. Samples were collected prior to dosing then at 5 and 30 minutes then 1, 2, 4, 8, 25, 48, 72 and 96 hours post dose for intravenous injection and at 15 and 30 minutes then 1, 2, 4, 8, 25, 48, 72 and 96 hours post dose for subcutaneous injection.
# Blood samples were centrifuged at 10000×g for 2 minutes at 4° C. and resultant plasma aspirated off into clean fully, labelled tubes. Plasma samples were snap frozen following aspiration then stored at −80° C. Peptide extraction and analysis were performed as described in Example 9. The limit of quantification of this method is 0.0015 nmol/mL. All values below this limit of quantification are considered as zero.
# [2] = test system: ovariectomized (OVX) rats; test: Bone formation in ovariectomized rat, μCT of proximal tibia; type: in vivo, Sprague-Dawley rats; details: 6 weeks
# Description: (§1) Effects on bone of three doses of HBD1 (3-11) with stearic acid at the N-terminus (C18:0) analog were tested in vivo in ovariectomized (OVX) rats, a recognized model for human osteoporosis, in particular postmenopausal osteoporosis. Each group included ten female Sprague-Dawley rats that were four months of age at the beginning of the in-life phase of the study. Treatment started six weeks after OVX surgery and lasted for six additional weeks. Groups were randomized before surgery according to body weight and tibial metaphysis Bone Mineral Density (BMD) as measured by peripheral quantitative computed tomography (pQCT) from Norland Stratec XCT Research SA equipment (Norland Stratec Medizintechnik, Birkenfeld, Germany).
# (§2) The peptide was reconstituted in saline solution (0.9% NaCl) and administered subcutaneously twice a day at the doses of 0.8 mg/kg (low), 1.6 mg/kg (med) or 3.2 mg/kg (high) in a volume of 1 mL/kg. The control group was administered twice a day with saline by s.c. administration. Rats were weighed once a week and the volume of dosing solution administered was adjusted accordingly.
# High-resolution micro-computed tomography (μCT) measurements using Sky Scan 1072 or 1172 High Resolution Scanner (Bruker microCT, Kontich, Belgium) were performed ex vivo in right proximal tibia at the end of the treatment period for measuring bone volume, bone cross-sectional dimensions and bone microarchitecture. FIGS. 5A, 5B and 5C show the percent increase from OVX animals HBD1 (3-11) with stearic acid at the N-terminus (C18:0) groups for following selected parameters: Bone Volume Fraction (BV/TV; %), Trabecular number (Tb.N; mm^−1) and Connectivity Density (Conn.D; mm^−3).
# [3] = test system: ovariectomized (OVX) rats; test: Bone biomechanical properties in ovariectomized rat (lumbar vertebrae compression, femoral neck cantilever bending); type: in vivo, Sprague-Dawley rats; details: 3.2 mg/kg BID s.c., 6 weeks, vs OVX vehicle
# Description: as §1, §2
# Bone biomechanical properties were determined by compression test using Instron 3343 biomechanical testing system (Instron, Norwood, Mass., USA). […]
# [4] = Stability of HBD1 fragments in human plasma; type: in vitro ADME; details: 24 and 48 hours incubation at 37° C.
# Description: The peptides were spiked at 1 μg/mL (peptide backbone) into pre-warmed human K2EDTA plasma (at 37° C.) and incubated for up to 48 hours. Aliquots of plasma were extracted at specific time points (0, 24 and 48 hours post spike). Extraction was performed with acetonitrile:water (75:25, v/v) for HBD1 (1-13), HBD1 (1-13) with palmitic acid at the N-terminus (C16:0), HBD1 (3-11) with palmitic acid at the N-terminus (C16:0)) and HBD1 (3-11) with stearic acid at the N-terminus (C18:0) or with acetonitrile:water:formic acid (75:25:0.1, v/v/v) for HBD1 (3-11) and cyclic HBD1 (3-11). The peptides were analyzed using developed LC (C18 reverse phase column)—positive ion electrospray MS/MS methods specific to each peptide. The peak area at each time point was expressed as a percentage of the value obtained for the t=0 minutes time point.
# [5] = Pharmacokinetic of HBD1 fragments in male Sprague Dawley rats after intravenous and subcutaneous injection; type: in vivo; details: 1 μmol net peptide/kg; for quantifiable exposure after administration by either dose route: iv and sc
# Description: The peptides were reconstituted in saline (0.9% NaCl). Three male Sprague Dawley rats were used per group. Intravenous doses were administered into a lateral tail vein at the dose of 1 μmol net peptide/kg. Subcutaneous doses were administered into the right flank of each animal, also at the dose of 1 μmol net peptide/kg. Following dosing, serial whole blood samples (ca. 0.25 mL) were collected from a lateral tail vein into K2EDTA treated containers. Following each blood sample collection, samples were placed into a cooling block at 4° C. Samples were collected prior to dosing then at 2, 5, 15 and 30 minutes then 1, 2, 4, 6 and 8 and 24 hours post dose for intravenous injection and at 15 and 30 minutes then 1, 2, 4, 6, 8 and 24 hours post dose for subcutaneous injection.
# Blood samples were centrifuged at 10000×g for 2 minutes at 4° C. and resultant plasma aspirated off into clean fully, labelled tubes. Plasma samples were snap frozen following aspiration then stored at −80° C. Peptides were extracted and analyzed as described in Example 9. The limits of quantification of these methods were 0.001 nmol/mL for cyclic HBD1 (3-11) and HBD1 (3-11) and 0.003 nmol/mL for HBD1 (1-13). All values below these limits of quantification were considered as zero.
# [6] = OVX rats, s.c. twice a day 0.8, 1.6 or 3.2 mg/kg, vs OVX vehicle, dose-dependent
compound,measurement,setting,value
"CCCCCCCCCCCCCCCCCC(=O)N[C@@H](Cc1c[nH]cn1)C(=O)N[C@@H](CC(C)C)C(=O)NCC(=O)N[C@@H](CC(C)C)C(=O)N[C@@H](CCC(=O)O)C(=O)N[C@@H](CCC(=O)O)C(=O)N1CCC[C@H]1C(=O)N[C@@H](CCCCN)C(=O)N[C@@H](CCCCN)C(=O)O [SEQ ID NO: 73, C18:0-HLGLEEPKK] (Stearoyl-HLGLEEPKK-OH; C-terminus assumed)",duration of exposure after subcutaneous administration,[1],up to 25 hours
same,effect on bone in ovariectomized rat,"[2]; OVX Sprague-Dawley rats, s.c. twice a day, 0.8, 1.6 or 3.2 mg/kg",has anabolic effect on bone
same,connectivity density (Conn.D) at tibial metaphysis,[2]; [6],increased
same,percent bone volume fraction (BV/TV) at tibial metaphysis,[2]; [6],increased
same,trabecular number (Tb.N) at tibial metaphysis,[2]; [6],increased
same,bone strength (biomechanical properties of lumbar vertebrae and femoral neck),[3],increased bone strength
"HLGLEEPKK [SEQ ID NO: 10, HLGLEEPKK]",stability in human plasma (in words),[4],very stable in human plasma
same,quantifiable exposure after administration by either dose route,[5],no quantifiable exposure
"CC(C)C[C@@H]1NC(=O)CNC(=O)[C@H](CC(C)C)NC(=O)[C@H](Cc2c[nH]cn2)NC(=O)[C@H](CCCCN)NC(=O)[C@H](CCCCN)NC(=O)[C@@H]2CCCN2C(=O)[C@H](CCC(=O)O)NC(=O)[C@H](CCC(=O)O)NC1=O [SEQ ID NO: 77, Cyclic (HLGLEEPKK)] (cyclo(EEPKKHLGL))",Tlast (last time point with detectable peptide),"[5]; iv, listed as Cyclic HBD1 (3-11)",8 h
same,Tlast (last time point with detectable peptide),"[5]; sc, listed as Cyclic HBD1 (3-11)",4 h
same,Tlast (last time point with detectable peptide),"[5]; sc, listed as cyclic HBD1 (3-11)",≤ 4 h
"KHHLGLEEPKKLR [SEQ ID NO: 1, KHHLGLEEPKKLR, reference compound]",stability in human plasma (in words),[4],markedly degraded in human plasma
same,quantifiable exposure after administration by either dose route,[5],no quantifiable exposure
